Literature values, collected in patent publication US20250073301A1, “Delayed Release Compositions of Linaclotide” (Ironwood Pharmaceuticals, Inc., priority 2013, published 2025).
Ends that are not written are not given here.

Conditions: human volunteers, oral linaclotide

**Q.** Which “oral dose found in feces” value does the source give for “CCEYCCNPACTGCY (cysteine pairing not given here) [linaclotide]” here?
**A.** Its value is “about 5%”.
